Data reported in ChEMBL document CHEMBL1123967, “New potent antagonists of leukotrienes C4 and D4. 1. Synthesis and structure-activity relationships” (J Med Chem, 1988).

Assays:
[1] = biological target: T1, Cysteinyl leukotriene receptor (Homo sapiens, UniProt Q9Y271+Q9NS75); test: Inhibition of LTC4 induced smooth muscle contraction of guinea pig ileum; type: functional, tissue-based, Cavia porcellus; details: target entry is the homologue from another species
T1 sequence (Q9Y271 whole entry): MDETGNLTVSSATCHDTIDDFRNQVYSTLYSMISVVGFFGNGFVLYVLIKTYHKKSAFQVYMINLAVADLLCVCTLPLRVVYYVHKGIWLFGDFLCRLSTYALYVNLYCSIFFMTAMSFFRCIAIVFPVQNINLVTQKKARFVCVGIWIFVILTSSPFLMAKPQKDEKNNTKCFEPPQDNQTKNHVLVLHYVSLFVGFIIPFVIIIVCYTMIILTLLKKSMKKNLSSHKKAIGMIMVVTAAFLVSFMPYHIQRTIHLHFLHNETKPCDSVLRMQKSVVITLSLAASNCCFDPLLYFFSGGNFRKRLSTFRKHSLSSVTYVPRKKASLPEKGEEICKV
T1 sequence (Q9NS75 whole entry): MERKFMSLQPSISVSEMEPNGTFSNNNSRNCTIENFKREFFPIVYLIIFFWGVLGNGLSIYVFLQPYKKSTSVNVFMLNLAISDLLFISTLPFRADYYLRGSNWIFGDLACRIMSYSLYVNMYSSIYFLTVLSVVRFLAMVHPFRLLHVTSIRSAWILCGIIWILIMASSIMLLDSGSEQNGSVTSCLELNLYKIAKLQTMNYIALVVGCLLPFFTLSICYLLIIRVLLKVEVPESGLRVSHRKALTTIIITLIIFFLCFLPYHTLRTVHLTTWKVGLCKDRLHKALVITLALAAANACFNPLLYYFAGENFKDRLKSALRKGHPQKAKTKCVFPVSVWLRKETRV

[2] = biological target: Cysteinyl leukotriene receptor (Homo sapiens) (UniProt Q9Y271+Q9NS75); test: In vivo inhibition of LTD4-induced bronchoconstriction in anesthetized guinea pig.; type: functional, organism-based; details: Cavia porcellus; target entry is the homologue from another species
Cavia porcellus [3] = test: Inhibition of LTD4 (5 ng/site) induced vascular permeability in guinea pig skin at dose 1 mg/kg given perorally; type: functional; details: route oral
Cavia porcellus [4] = test: Inhibition of LTD4 (5 ng/site) induced vascular permeability in guinea pig skin at dose 0.3 mg/kg given perorally; type: functional; details: route oral
Cavia porcellus [5] = test: Inhibition of LTD4-induced bronchoconstriction in guinea pig in guinea pig at dose of (0.5 ug/kg) given intravenously; type: functional; details: iv, read-out: ID50 (the source's name)
Cavia porcellus [6] = test: Inhibition of LTC4-induced bronchoconstriction in guinea pig at dose of (0.5 ug/kg) given intravenously; type: functional; details: iv, read-out: ID50 (the source's name)
Cavia porcellus [7] = test: Inhibition of LTB4 induced bronchoconstriction in guinea pig at dose of 3 ug/kg given intravenously; type: functional; details: iv, read-out: ID50 (the source's name)
Cavia porcellus [8] = test: Inhibition of LTE4-induced bronchoconstriction in guinea pig at dose of (1 ug/kg) given intravenously; type: functional; details: iv, read-out: ID50 (the source's name)
Cavia porcellus [9] = test: Inhibition of LTE4 induced bronchoconstriction in guinea pig at dose of 1 ug/kg given intravenously; type: functional; details: iv, read-out: ID50 (the source's name)
Cavia porcellus [10] = test: Inhibition of LTC4 induced bronchoconstriction in guinea pig at dose of (0.5 ug/kg) given intravenously; type: functional; details: iv, read-out: ID50 (the source's name)
Cavia porcellus [11] = test: Inhibition of LTD4 (5 ng/site) induced vascular permeability in guinea pig skin at dose 10 mg/kg given perorally; type: functional; details: route oral
Cavia porcellus [12] = test: Inhibition of LTD4 induced bronchoconstriction in guinea pig at dose of (0.5 ug/kg) given intravenously; type: functional; details: iv, read-out: ID50 (the source's name)
Cavia porcellus [13] = test: Inhibition of LTD4 (5 ng/site) induced vascular permeability in guinea pig skin at dose 30 mg/kg given perorally; type: functional; details: route oral
Cavia porcellus [14] = test: Inhibition of LTB4 induced bronchoconstriction in guinea pig at dose of (1 ug/kg) given intravenously; type: functional; details: iv, read-out: ID50 (the source's name)
Cavia porcellus [15] = test: Inhibition of LTD4-induced bronchoconstriction in guinea pig at dose of (0.5 ug/kg) given intravenously; type: functional; details: iv, read-out: ID50 (the source's name)

Structure (SMILES)	IC50 [1] [nM]	ID50 [2] [µg/kg]	inhibition in vivo at 1 mg/kg (Cavia porcellus [3]) [%]	inhibition in vivo at 0.3 mg/kg (Cavia porcellus [4]) [%]	ED50 (Cavia porcellus [6]) [µg/kg]	ED50 (Cavia porcellus [7]) [µg/kg]	ED50 (Cavia porcellus [8]) [µg/kg]	inhibition in vivo at 10 mg/kg (Cavia porcellus [11]) [%]	inhibition in vivo at 30 mg/kg (Cavia porcellus [13]) [%]	further results
O=C(Nc1cccc2c1OC(c1nnn[nH]1)CO2)c1ccc(OCCCCc2ccccc2)cc1 (stereo unspecified)	0.37	1.2	–	–	–	> 500	–	61.8	63.2	ED50 (Cavia porcellus [9]): 2 µg/kg; ED50 (Cavia porcellus [10]): 1.1 µg/kg; ED50 (Cavia porcellus [12]): 4.4 µg/kg
CCCc1c(OCC(O)COc2ccc3c(=O)cc(C(=O)[O-])oc3c2CCC)ccc(C(C)=O)c1O.[Na+] (stereo unspecified) [FPL-55712 SODIUM SALT]	–	500	–	–	155	–	211	–	–	ED50 (Cavia porcellus [14]): > 500 µg/kg; ED50 (Cavia porcellus [15]): 440 µg/kg
CCCCC/C=C/COc1ccc(C(=O)Nc2cccc3c2OC(c2nnn[nH]2)CO3)cc1 (stereo unspecified)	2	2	–	–	–	–	–	30.4	< 43.8	–

Now from value to compound, other results behind:

IC50 [1] [nM]	ID50 [2] [µg/kg]	Structure (SMILES)	inhibition in vivo at 1 mg/kg (Cavia porcellus [3]) [%]	inhibition in vivo at 0.3 mg/kg (Cavia porcellus [4]) [%]	ED50 (Cavia porcellus [6]) [µg/kg]	ED50 (Cavia porcellus [7]) [µg/kg]	ED50 (Cavia porcellus [8]) [µg/kg]	inhibition in vivo at 10 mg/kg (Cavia porcellus [11]) [%]	inhibition in vivo at 30 mg/kg (Cavia porcellus [13]) [%]	further results
0.11	1.9	C=CCCCCCCOc1ccc(C(=O)Nc2cccc3c(=O)cc(-c4nn[nH]n4)oc23)cc1	< 60.7	< 46.7	–	–	–	–	–	–
–	0.8	O=C(Nc1cccc2c(=O)cc(-c3nnn[nH]3)oc12)c1ccc(OCCCCc2ccccc2)cc1	75.2	74.7	0.8	> 500	0.7	–	–	ED50 (Cavia porcellus [5]): 1 µg/kg
0.06	0.72	CCCCC/C=C/COc1ccc(C(=O)Nc2cccc3c(=O)cc(-c4nn[nH]n4)oc23)cc1	25	–	–	–	–	–	–	–
